Test results from PubChem BioAssay (NCI).
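The compound was tested at five concentrations on cells cultured in 96-well plates, with a 48-hour exposure period. GI50 is the concentration that inhibits growth by half. At the TGI there is no net growth.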

How the values were obtained:
Experiment in all cases: NCI anticancer screen, dose series, 48 h
OVCAR-4 ovarian = tested on: OVCAR-4 ovarian
IGROV1 ovarian = tested on: IGROV1 ovarian
SK-MEL-2 melanoma = tested on: SK-MEL-2 melanoma
SR leukemia = tested on: SR leukemia
SF-295 CNS = tested on: SF-295 CNS
CCRF-CEM leukemia = tested on: CCRF-CEM leukemia
BT-549 breast = tested on: BT-549 breast
OVCAR-5 ovarian = tested on: OVCAR-5 ovarian
COLO 205 colon = tested on: COLO 205 colon
NCI-H522 lung = tested on: NCI-H522 lung
MDA-MB-231 breast = tested on: MDA-MB-231 breast
MOLT-4 leukemia = tested on: MOLT-4 leukemia
NCI/ADR-RES ovarian = tested on: NCI/ADR-RES ovarian
SN12C renal = tested on: SN12C renal
EKVX NSCLC = tested on: EKVX NSCLC
HT29 colon = tested on: HT29 colon
SNB-75 CNS = tested on: SNB-75 CNS
PC-3 prostate = tested on: PC-3 prostate
UACC-62 melanoma = tested on: UACC-62 melanoma
SK-MEL-28 melanoma = tested on: SK-MEL-28 melanoma
HS 578T breast = tested on: HS 578T breast
TK-10 renal = tested on: TK-10 renal
SK-MEL-5 melanoma = tested on: SK-MEL-5 melanoma
A549 NSCLC = tested on: A549 NSCLC
ACHN renal = tested on: ACHN renal
OVCAR-3 ovarian = tested on: OVCAR-3 ovarian
SF-268 CNS = tested on: SF-268 CNS
786-0 renal = tested on: 786-0 renal
MALME-3M melanoma = tested on: MALME-3M melanoma
HCT-116 colon = tested on: HCT-116 colon
MDA-MB-435 = tested on: MDA-MB-435
SNB-19 CNS = tested on: SNB-19 CNS
SF-539 CNS = tested on: SF-539 CNS
NCI-H226 lung = tested on: NCI-H226 lung
OVCAR-8 ovarian = tested on: OVCAR-8 ovarian
SW-620 colon = tested on: SW-620 colon
HL-60(TB) leukemia = tested on: HL-60(TB) leukemia
DU-145 prostate = tested on: DU-145 prostate
CAKI-1 renal = tested on: CAKI-1 renal
K-562 leukemia = tested on: K-562 leukemia
M14 melanoma = tested on: M14 melanoma
U251 CNS = tested on: U251 CNS
HOP-92 NSCLC = tested on: HOP-92 NSCLC
HOP-62 NSCLC = tested on: HOP-62 NSCLC
KM12 colon = tested on: KM12 colon
UO-31 renal = tested on: UO-31 renal
NCI-H23 lung = tested on: NCI-H23 lung
A498 renal = tested on: A498 renal
SK-OV-3 ovarian = tested on: SK-OV-3 ovarian
NCI-H460 lung = tested on: NCI-H460 lung
UACC-257 melanoma = tested on: UACC-257 melanoma
RPMI-8226 leukemia = tested on: RPMI-8226 leukemia
RXF 393 renal = tested on: RXF 393 renal
HCT-15 colon = tested on: HCT-15 colon
HCC-2998 colon = tested on: HCC-2998 colon
T-47D breast = tested on: T-47D breast
MDA-MB-468 breast = tested on: MDA-MB-468 breast
LOX IMVI melanoma = tested on: LOX IMVI melanoma
MCF7 breast = tested on: MCF7 breast

## CCOc1ccc(-c2cc(-c3cc(C(C)C)c(O)cc3C)nn2-c2ccc(S(N)(=O)=O)cc2)cc1
OVCAR-4 ovarian
  GI50: 7.29 µM
  TGI: 21 µM
IGROV1 ovarian
  GI50: 12.1 µM
  TGI: 24.9 µM
SK-MEL-2 melanoma
  GI50: 7.28 µM
  TGI: 20.8 µM
SR leukemia
  GI50: 1.8 µM
  TGI: 43.8 µM
SF-295 CNS
  GI50: 9.37 µM
  TGI: 21.3 µM
CCRF-CEM leukemia
  GI50: 2.86 µM
  TGI: 13.8 µM
BT-549 breast
  GI50: 2.93 µM
  TGI: 11.4 µM
OVCAR-5 ovarian
  GI50: 15.7 µM
  TGI: 29.2 µM
COLO 205 colon
  GI50: 17.1 µM
  TGI: 31.7 µM
NCI-H522 lung
  GI50: 2.75 µM
  TGI: 11 µM
MDA-MB-231 breast
  GI50: 6.78 µM
  TGI: 20.3 µM
MOLT-4 leukemia
  GI50: 4.02 µM
  TGI: 17.6 µM
NCI/ADR-RES ovarian
  GI50: 3.15 µM
  TGI: 12.2 µM
SN12C renal
  GI50: 6.66 µM
  TGI: 20.1 µM
EKVX NSCLC
  GI50: 3.96 µM
  TGI: 15.2 µM
HT29 colon
  GI50: 15.4 µM
  TGI: 29.5 µM
SNB-75 CNS
  GI50: 2.48 µM
  TGI: 13 µM
PC-3 prostate
  GI50: 5.47 µM
  TGI: 19.6 µM
UACC-62 melanoma
  GI50: 7.25 µM
  TGI: 20.4 µM
SK-MEL-28 melanoma
  GI50: 11.7 µM
  TGI: 24 µM
HS 578T breast
  GI50: 5.8 µM
  TGI: 25.9 µM
TK-10 renal
  GI50: 15.6 µM
  TGI: 29.1 µM
SK-MEL-5 melanoma
  GI50: 5.3 µM
  TGI: 17.8 µM
A549 NSCLC
  GI50: 4.62 µM
  TGI: 19.2 µM
ACHN renal
  GI50: 10.5 µM
  TGI: 22.3 µM
OVCAR-3 ovarian
  GI50: 4.55 µM
  TGI: 15.3 µM
SF-268 CNS
  GI50: 7.22 µM
  TGI: 21.4 µM
786-0 renal
  GI50: 11.2 µM
  TGI: 23.3 µM
MALME-3M melanoma
  GI50: 11 µM
  TGI: 23.4 µM
HCT-116 colon
  GI50: 5.46 µM
  TGI: 18.2 µM
MDA-MB-435
  GI50: 1.91 µM
  TGI: 4.44 µM
SNB-19 CNS
  GI50: 12.3 µM
  TGI: 24.8 µM
SF-539 CNS
  GI50: 5.51 µM
  TGI: 17.7 µM
NCI-H226 lung
  GI50: 15.7 µM
  TGI: 37 µM
OVCAR-8 ovarian
  GI50: 7.24 µM
  TGI: 21.6 µM
SW-620 colon
  GI50: 5.94 µM
  TGI: 20 µM
HL-60(TB) leukemia
  GI50: 4.81 µM
  TGI: 37.3 µM
DU-145 prostate
  GI50: 7.07 µM
  TGI: 19.9 µM
CAKI-1 renal
  GI50: 4.92 µM
  TGI: 18 µM
K-562 leukemia
  GI50: 3.38 µM
  TGI: > 100 µM
M14 melanoma
  GI50: 9.86 µM
  TGI: 22.4 µM
U251 CNS
  GI50: 5.29 µM
  TGI: 18.6 µM
HOP-92 NSCLC
  GI50: 2.82 µM
  TGI: 13 µM
HOP-62 NSCLC
  GI50: 10.4 µM
  TGI: 23.4 µM
KM12 colon
  GI50: 3.47 µM
  TGI: 13.4 µM
UO-31 renal
  GI50: 5.46 µM
  TGI: 18.3 µM
NCI-H23 lung
  GI50: 6.86 µM
  TGI: 20.5 µM
A498 renal
  GI50: 13.4 µM
  TGI: 26.4 µM
SK-OV-3 ovarian
  GI50: 10.7 µM
  TGI: 22.7 µM
NCI-H460 lung
  GI50: 5.21 µM
  TGI: 18.1 µM
UACC-257 melanoma
  GI50: 10.4 µM
  TGI: 22.5 µM
RPMI-8226 leukemia
  GI50: 4.29 µM
  TGI: 22.2 µM
RXF 393 renal
  GI50: 4.45 µM
  TGI: 17.2 µM
HCT-15 colon
  GI50: 3.61 µM
  TGI: 14.4 µM
HCC-2998 colon
  GI50: 3.87 µM
  TGI: 12.7 µM
T-47D breast
  GI50: 3.71 µM
  TGI: 17 µM
MDA-MB-468 breast
  GI50: 2.39 µM
  TGI: 6.76 µM
LOX IMVI melanoma
  GI50: 5.65 µM
  TGI: 18.3 µM
MCF7 breast
  GI50: 4.88 µM
  TGI: 19.2 µM
